Test [1] addresses T1, acid ceramidase (AC) (Homo sapiens, UniProt Q13510).
T1 sequence (Q13510 143-395 limits assumed): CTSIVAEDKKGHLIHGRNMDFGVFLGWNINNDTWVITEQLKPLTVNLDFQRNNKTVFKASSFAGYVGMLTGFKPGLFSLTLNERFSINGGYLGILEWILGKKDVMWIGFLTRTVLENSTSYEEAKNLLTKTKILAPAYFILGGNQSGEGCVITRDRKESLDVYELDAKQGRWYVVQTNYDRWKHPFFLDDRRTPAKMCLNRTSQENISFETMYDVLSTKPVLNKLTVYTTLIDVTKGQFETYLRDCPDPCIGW
T1 sequence (Q13510 22-142 limits assumed): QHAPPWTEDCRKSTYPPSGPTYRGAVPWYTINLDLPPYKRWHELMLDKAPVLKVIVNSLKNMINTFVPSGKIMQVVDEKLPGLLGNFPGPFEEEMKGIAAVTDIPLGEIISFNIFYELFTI
The test is described as follows: AC activity-dependence of labelling (fluorescence confocal microscopy). It is filed as cell-based. Set-up: expressed in transfected cells; host or cells: FD/AC (overexpressing AC). To be noted: FD/AC cells, SOCLAC 5 µM 1 h pretreatment, RBM5-177 5 µM 4 h. The method, then:
Cells were seeded at 1 × 10^5 cells/mL on glass-bottom plates and allowed to adhere for 24 h. For golgi staining, cells were incubated with 40 µL/well of CellLight Golgi-RFP BacMam 2.0 for 24 h. […] After this time, the medium was replaced with fresh medium containing CO-1 (1 µM final concentration), and cells were incubated for 10 min. Then cells were washed 3 times with DMEM for 5 min at 37 °C, 75 nM LysoTracker Red DND-99 or 75 nM Mitotracker in phenol red-free DMEM was added to stain lysosomes or mitochondria, and cells were kept in the incubator for microscope analysis. Staining was viewed with a Zeiss LSM 880 confocal microscope or Leica TCS SP8-Hyvolution. Image analysis was performed using Fiji software.^[7] To measure the Manders's and Pearson's coefficients a threshold including organelles and discarding the background was set. Co-localization coefficients were measured using the JaCoP plugin (S. Bolte et al. J. Microsc. 2006, 224, 213-232) on the different stacks of images (at least n=4) with each stack containing 3-10 cells.

Test [2] addresses T1, acid ceramidase (AC). The test is described as follows: AC activity in intact cells by UPLC-HRMS quantification of RBM5-019 and reacylated products. On the set-up: expressed in transfected cells; host or cells: A375/+Dox (overexpressing AC). Conditions: A375/+Dox. It is filed as cell-based. As to the method: Cells were seeded at 5 × 10^5 cells/mL into 6 well plates (1 mL/well) and were allowed to adhere for 24 h. Medium was replaced with fresh medium containing RBM5-177, RBM5-019 or RBM2-37 (5 μM final concentration). After 30 min, medium was removed; cells were washed with 400 μL PBS and harvested with 400 μL Trypsin-EDTA and 600 μL of medium. NC recombinant enzyme, lysates from A375-AC overexpressing cells, MEF5 or microsomes from HeLa T-Rex ACER1-TET-ON and HeLa T-Rex ACER2-TET-ON cells stably overexpress ACER1 orACER2 respectively were incubated with RBM5-177 or RBM5-019 (10 μM final concentration) for 3 h in the corresponding ceramidase activity buffer. Cell pellets were resuspended with 100 μL of H2O and mixed with 750 μL of methanol: chloroform, 2:1. Samples were heated at 48°C overnight and next day, 75 μL of 1 M KOH in methanol were added, followed by 2 h incubation at 37°C. Afterwards, the saponification was neutralised with 75 μL of 1 M acetic acid and solvent was removed using a […] (Thermo Scientific). Sphingolipid extracts, fortified with internal standards (N-dodecanoylsphingosine, N-dodecanoylglucosylsphingosine, N-dodecanoylsphingosylphosphorylcoline and C17-sphinganine 0.2 nmol each) were solubilised in 150 μL of methanol. Samples were then centrifuged at 9,300 g for 3 min and 130 μL of the supernatant were injected to a Waters Aquity UPLC system connected to a Waters LCT Premier Orthogonal Accelerated Time of Flight Mass Spectrometer (Waters,Milford, MA, USA) operated in positive electrospray ionisation mode. Full scan spectra from 50 to 1500 Da were acquired and individual spectra were summed to produce data points each 0.2 s. Mass accuracy and reproducibility were maintained by using an independent reference spray by the LockSpray interference. The analytical column was a 100 mm x2.1 mm i.d., 1.7 μm C8 Acquity UPLC BEH (Waters). The two mobile phases were phase A: methanol/water/formic acid (74/25/1 v/v/v); phase B: methanol/formic acid (99/1 v/v), both also contained 5 mM ammonium formate. […]

With `CCCCCCCCCCCCC/C=C/[C@@H](O)[C@H](CO)NC(=O)CCl` [SOCLAC], on acid ceramidase (AC) [1], the “effect on lysosome labelling by RBM5-177/CO-1” value is listed as “no lysosomal labelling occurred”. Further, at acid ceramidase (AC) [2] (SOCLAC 5 µM 1 h, RBM5-177 5 µM 4 h (Fig. 4B)), the “effect on formation of RBM5-19 and transacylated products” value was “precluded the formation of both RBM5-19 and transacylated products”. Moreover, the “effect on levels of RBM5-19 and reacylated products” value at acid ceramidase (AC) [2] (SOCLAC 5 µM 1 h pre treatment, RBM5-177 5 µM 4 h (Fig. 6B)) is on record as “dropped dramatically”.

For the origin of these results see patent EP3925949A1, “AZIDO COMPOUNDS AND METHOD FOR MONITORING ACID CERAMIDASE ACTIVITY IN INTACT CELLS USING THEM” (Consejo Superior de Investigaciones Científicas (CSIC), priority 2020, dated 2021).
